Reference: ChEMBL document CHEMBL4725309, “Potent, non-covalent reversible BTK inhibitors with 8-amino-imidazo[1,5-a]pyrazine core featuring 3-position bicyclic ring substitutes” (Bioorg Med Chem Lett, 2020)
pIC50: −log10 of the molar value.

What was measured:
[1] = target: Tyrosine-protein kinase BTK (Homo sapiens, UniProt Q06187); assay: Inhibition of recombinant full length BTK (unknown origin) expressed in baculovirus infected Sf9 cells using Biotin-EQEDEPEGDYFEWLE-NH2 peptide as substrate incubated for 60 mins followed by further incubation with substrate and ATP for 120 mins by TR-FRET assay
Chain of Tyrosine-protein kinase BTK (Q06187 whole entry): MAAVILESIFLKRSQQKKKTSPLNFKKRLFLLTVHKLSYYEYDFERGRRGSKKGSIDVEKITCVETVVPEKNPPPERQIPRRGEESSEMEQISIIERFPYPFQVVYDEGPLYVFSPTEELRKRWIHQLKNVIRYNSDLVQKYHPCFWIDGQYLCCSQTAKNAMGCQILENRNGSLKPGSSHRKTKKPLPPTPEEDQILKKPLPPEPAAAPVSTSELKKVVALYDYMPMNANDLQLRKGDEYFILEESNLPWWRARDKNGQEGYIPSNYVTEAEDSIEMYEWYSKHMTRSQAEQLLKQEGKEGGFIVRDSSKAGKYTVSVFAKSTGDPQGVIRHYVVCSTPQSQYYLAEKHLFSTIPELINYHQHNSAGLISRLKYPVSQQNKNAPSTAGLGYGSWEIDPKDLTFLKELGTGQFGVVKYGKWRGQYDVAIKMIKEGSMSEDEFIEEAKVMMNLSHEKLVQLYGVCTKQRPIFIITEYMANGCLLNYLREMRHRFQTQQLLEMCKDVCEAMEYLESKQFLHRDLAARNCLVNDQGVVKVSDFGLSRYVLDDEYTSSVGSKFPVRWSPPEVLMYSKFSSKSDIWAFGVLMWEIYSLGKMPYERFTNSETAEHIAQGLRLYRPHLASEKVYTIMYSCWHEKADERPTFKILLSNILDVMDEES

Homo sapiens [2] = organism: Homo sapiens; assay: Selectivity index, ratio of IC50 for ERBB4 (unknown origin) to IC50 for recombinant full length BTK (unknown origin) expressed in baculovirus infected Sf9 cells
Homo sapiens [3] = organism: Homo sapiens; assay: Selectivity index, ratio of IC50 for TEC (unknown origin) to IC50 for recombinant full length BTK (unknown origin) expressed in baculovirus infected Sf9 cells
Homo sapiens [4] = organism: Homo sapiens; assay: Selectivity index, ratio of IC50 for BMX (unknown origin) to IC50 for recombinant full length BTK (unknown origin) expressed in baculovirus infected Sf9 cells
Homo sapiens [5] = organism: Homo sapiens; assay: Selectivity index, ratio of IC50 for SRC (unknown origin) to IC50 for recombinant full length BTK (unknown origin) expressed in baculovirus infected Sf9 cells
[6] = target: Tyrosine-protein kinase Srms (Homo sapiens, UniProt Q9H3Y6); assay: Inhibition of SRMS (unknown origin)
Chain of Tyrosine-protein kinase Srms (Q9H3Y6 whole entry): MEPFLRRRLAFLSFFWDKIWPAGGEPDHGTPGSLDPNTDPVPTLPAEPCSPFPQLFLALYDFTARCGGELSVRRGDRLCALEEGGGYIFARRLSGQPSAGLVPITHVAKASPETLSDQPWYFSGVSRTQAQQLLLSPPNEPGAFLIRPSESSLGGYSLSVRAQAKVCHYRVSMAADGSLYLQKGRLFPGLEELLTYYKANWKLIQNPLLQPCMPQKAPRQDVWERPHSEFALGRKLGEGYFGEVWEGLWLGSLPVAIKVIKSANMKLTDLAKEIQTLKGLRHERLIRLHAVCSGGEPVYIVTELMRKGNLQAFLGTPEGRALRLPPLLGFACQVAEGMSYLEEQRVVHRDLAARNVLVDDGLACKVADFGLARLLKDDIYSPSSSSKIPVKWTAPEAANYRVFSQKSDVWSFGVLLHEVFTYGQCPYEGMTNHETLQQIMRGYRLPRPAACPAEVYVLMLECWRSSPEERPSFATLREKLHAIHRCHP

Homo sapiens [7] = organism: Homo sapiens; assay: Selectivity index, ratio of IC50 for TXK (unknown origin) to IC50 for recombinant full length BTK (unknown origin) expressed in baculovirus infected Sf9 cells
[8] = target: T1, Tyrosine-protein kinase TXK (Homo sapiens, UniProt P42681); assay: Inhibition of TXK (unknown origin)
T1 sequence (P42681 whole entry): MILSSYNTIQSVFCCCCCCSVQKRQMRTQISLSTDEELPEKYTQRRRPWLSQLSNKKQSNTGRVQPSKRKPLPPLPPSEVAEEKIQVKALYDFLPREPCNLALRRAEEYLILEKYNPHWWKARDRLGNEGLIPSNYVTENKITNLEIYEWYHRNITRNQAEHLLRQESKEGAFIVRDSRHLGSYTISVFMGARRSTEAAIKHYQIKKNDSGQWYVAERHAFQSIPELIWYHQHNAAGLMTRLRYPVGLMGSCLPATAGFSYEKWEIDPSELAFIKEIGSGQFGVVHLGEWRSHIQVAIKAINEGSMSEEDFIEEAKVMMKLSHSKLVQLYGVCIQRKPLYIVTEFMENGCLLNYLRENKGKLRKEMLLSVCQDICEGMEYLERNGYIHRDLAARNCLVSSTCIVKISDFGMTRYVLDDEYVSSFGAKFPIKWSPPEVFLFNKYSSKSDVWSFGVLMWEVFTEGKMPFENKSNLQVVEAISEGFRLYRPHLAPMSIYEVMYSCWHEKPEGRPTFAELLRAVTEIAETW

[9] = target: Tyrosine-protein kinase CSK (Homo sapiens, UniProt P41240); assay: Inhibition of CSK (unknown origin)
[10] = Oral bioavailability in Wistar Han rat at 5 mg/kg; type: ADME, organism-based; conditions: in vivo; for bioavailability: Wistar Han
Homo sapiens [11] = organism: Homo sapiens; assay: Selectivity index, ratio of IC50 for BLK (unknown origin) to IC50 for recombinant full length BTK (unknown origin) expressed in baculovirus infected Sf9 cells
[12] = Clearance in Wistar Han rat at 2 mg/kg, iv; type: ADME, organism-based; conditions: in vivo
Homo sapiens [13] = organism: Homo sapiens; assay: Selectivity index, ratio of IC50 for PTK6 (unknown origin) to IC50 for recombinant full length BTK (unknown origin) expressed in baculovirus infected Sf9 cells
[14] = Half life in Wistar Han rat at 2 mg/kg, iv; type: ADME, organism-based; conditions: in vivo
[15] = target: Tyrosine-protein kinase Blk (Homo sapiens, UniProt P51451); assay: Inhibition of BLK (unknown origin)
Chain of Tyrosine-protein kinase Blk (P51451 whole entry): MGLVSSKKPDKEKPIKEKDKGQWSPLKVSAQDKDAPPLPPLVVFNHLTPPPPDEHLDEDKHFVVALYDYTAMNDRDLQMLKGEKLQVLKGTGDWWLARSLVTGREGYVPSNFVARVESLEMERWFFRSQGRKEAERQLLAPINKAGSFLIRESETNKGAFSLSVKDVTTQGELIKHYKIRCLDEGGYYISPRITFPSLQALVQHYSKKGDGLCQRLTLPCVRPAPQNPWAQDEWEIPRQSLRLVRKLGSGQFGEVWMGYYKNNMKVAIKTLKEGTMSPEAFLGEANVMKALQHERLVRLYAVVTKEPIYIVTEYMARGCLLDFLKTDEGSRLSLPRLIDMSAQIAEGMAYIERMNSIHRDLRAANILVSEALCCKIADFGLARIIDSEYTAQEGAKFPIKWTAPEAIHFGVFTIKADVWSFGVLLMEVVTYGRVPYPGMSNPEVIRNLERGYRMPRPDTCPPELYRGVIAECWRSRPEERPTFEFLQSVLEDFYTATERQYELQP

Homo sapiens [16] = organism: Homo sapiens; assay: Selectivity index, ratio of IC50 for FGR (unknown origin) to IC50 for recombinant full length BTK (unknown origin) expressed in baculovirus infected Sf9 cells
[17] = target: Tyrosine-protein kinase Fgr (Homo sapiens, UniProt P09769); assay: Inhibition of FGR (unknown origin)
Chain of Tyrosine-protein kinase Fgr (P09769 whole entry): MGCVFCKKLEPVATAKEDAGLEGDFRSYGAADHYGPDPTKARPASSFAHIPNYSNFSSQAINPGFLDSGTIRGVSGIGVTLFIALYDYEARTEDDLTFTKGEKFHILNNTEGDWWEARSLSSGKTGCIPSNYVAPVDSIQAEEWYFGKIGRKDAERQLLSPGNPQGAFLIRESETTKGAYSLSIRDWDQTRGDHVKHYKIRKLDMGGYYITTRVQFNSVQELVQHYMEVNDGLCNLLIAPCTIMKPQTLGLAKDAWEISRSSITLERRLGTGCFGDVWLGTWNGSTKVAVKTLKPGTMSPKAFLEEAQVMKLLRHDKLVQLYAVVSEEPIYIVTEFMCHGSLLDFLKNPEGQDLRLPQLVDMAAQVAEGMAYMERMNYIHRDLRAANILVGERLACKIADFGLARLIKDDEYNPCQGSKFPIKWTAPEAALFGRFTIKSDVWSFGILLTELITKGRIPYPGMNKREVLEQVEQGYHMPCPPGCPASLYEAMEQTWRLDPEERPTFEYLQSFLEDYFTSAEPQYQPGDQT

[18] = target: Tyrosine-protein kinase Lyn (Homo sapiens, UniProt P07948); assay: Inhibition of LYNB (unknown origin)
Chain of Tyrosine-protein kinase Lyn (P07948 whole entry): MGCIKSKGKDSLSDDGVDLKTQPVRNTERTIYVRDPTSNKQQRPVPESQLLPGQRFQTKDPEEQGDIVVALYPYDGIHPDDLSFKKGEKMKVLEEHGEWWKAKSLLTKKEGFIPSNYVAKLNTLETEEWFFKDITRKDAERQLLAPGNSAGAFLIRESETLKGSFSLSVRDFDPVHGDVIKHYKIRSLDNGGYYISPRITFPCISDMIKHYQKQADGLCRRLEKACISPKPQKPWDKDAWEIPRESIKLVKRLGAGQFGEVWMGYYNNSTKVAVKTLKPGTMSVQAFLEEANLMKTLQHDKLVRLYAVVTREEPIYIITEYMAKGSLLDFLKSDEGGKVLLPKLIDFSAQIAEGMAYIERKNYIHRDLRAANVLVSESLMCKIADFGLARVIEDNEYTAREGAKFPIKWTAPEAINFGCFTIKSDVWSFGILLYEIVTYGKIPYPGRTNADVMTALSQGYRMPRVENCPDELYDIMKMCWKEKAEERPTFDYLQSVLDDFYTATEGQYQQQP

[19] = Oral bioavailability in Beagle dog at 2 mg/kg; type: ADME, organism-based, Canis lupus familiaris; conditions: in vivo
[20] = Cmax in Beagle dog at 2 mg/kg, po; type: ADME, organism-based, Canis lupus familiaris; set-up: route oral, dose 2 mg/kg; conditions: in vivo
[21] = AUC in Beagle dog at 1 mg/kg, iv; type: ADME, organism-based, Canis lupus familiaris; set-up: dose 1 mg/kg; conditions: in vivo
[22] = Clearance in Beagle dog at 1 mg/kg, iv; type: ADME, organism-based, Canis lupus familiaris; conditions: in vivo
[23] = Tmax in Beagle dog at 2 mg/kg, po; type: ADME, organism-based, Canis lupus familiaris; conditions: in vivo
Rattus norvegicus = assay: Antiarthritic activity in Lewis rat model of collagen-induced arthritis assessed as decrease in paw thickness at 1 to 30 mg/kg, po qd and measured for 30 days; type: functional, organism-based; conditions: dose mg/kg 1-30, time 30.0 day
[24] = Volume of distribution at steady state in Beagle dog at 1 mg/kg, iv; type: ADME, organism-based, Canis lupus familiaris; conditions: in vivo, read-out: Vdss
[25] = Half life in Beagle dog at 1 mg/kg, iv; type: ADME, organism-based, Canis lupus familiaris; conditions: in vivo

pIC50 [6]	pIC50 [8]	pIC50 [9]	clearance [12]	half-life [14]	pIC50 [15]	pIC50 [18]	SMILES	pIC50 [1]	Ratio IC50 (Homo sapiens [2])	Ratio IC50 (Homo sapiens [3])	Ratio IC50 (Homo sapiens [4])	Ratio IC50 (Homo sapiens [5])	Ratio IC50 (Homo sapiens [7])	bioavailability [10]	Ratio IC50 (Homo sapiens [11])	Ratio IC50 (Homo sapiens [13])	Ratio IC50 (Homo sapiens [16])	pIC50 [17]	other results
8.10	7.82	6.46	26 mL/min/kg	3.6 h	7.77	7.10	CC1(C)OC(=O)N2C[C@H](c3nc(-c4ccc(C(=O)Nc5cc(C(F)(F)F)ccn5)cc4)c4c(N)nccn34)CC[C@H]21	9.92	190	220	47	570	125		140	200	283	7.47	F ([10]; 5 mg/kg): 160%
8.04	7.48	6.79	8 mL/min/kg	2.8 h	8.08	7.70	Nc1nccn2c([C@@H]3CC[C@H]4CCC(=O)N4C3)nc(-c3ccc(C(=O)Nc4cc(C(F)(F)F)ccn4)cc3)c12		240	630	110	330	330	46%	83	420			bioavailability [19]: 100%; Cmax [20]: 1700 nM; AUC [21]: 2.8 µM·h; clearance [22]: 11 mL/min/kg; Tmax [23]: 1 h; Activity (Rattus norvegicus): Dose-dependent effect; Vd [24]: 1.5 L/kg; half-life [25]: 3.6 h

SMILES	pIC50 [6]	pIC50 [8]	pIC50 [9]	clearance [12]	half-life [14]	pIC50 [15]	pIC50 [18]	pIC50 [1]	Ratio IC50 (Homo sapiens [2])	Ratio IC50 (Homo sapiens [3])	Ratio IC50 (Homo sapiens [4])	Ratio IC50 (Homo sapiens [5])	Ratio IC50 (Homo sapiens [7])	bioavailability [10]	Ratio IC50 (Homo sapiens [11])	Ratio IC50 (Homo sapiens [13])	Ratio IC50 (Homo sapiens [16])	pIC50 [17]	other results
Nc1nccn2c([C@@H]3CC[C@H]4COC(=O)N4C3)nc(-c3ccc(C(=O)Nc4cc(C(F)(F)F)ccn4)cc3)c12	7.85	7.34	6.54	17 mL/min/kg	5.1 h	7.66	7.31	10.08	410	1110	157	1110	554	3.6%	265	600	313	7.59	
